One experiment addresses T1, HIV-integrase (Human immunodeficiency virus type 1 group M subtype B, UniProt P12497).
T1 construct: Recombinant integrase (0.26 ng) was incubated with the beads
Briefly: HIV-Integrase Inhibition Activity (SPA bead strand-transfer assay). Type of experiment: biochemical. As to conditions: Table 2a; read-out: HIV-Integrase Inhibition Activity. The procedure, abridged:
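Biotin-labelled substrate DNA (5 pmole) bound to streptavidin SPA beads, preloaded with recombinant integrase (0.26 ng) for 90 min at 37° C, then washed. Inhibitors and 0.1 fmol P33-labelled target DNA added; reaction stopped with 10 mM EDTA. Integration read as scintillation CPM.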

In the next experiment the test system is NL-Rluc virus. Briefly: Inhibition of HIV replication (recombinant NL-Rluc virus, luciferase). As to conditions: Human immunodeficiency virus 1, read-out: Inhibition of HIV replication. Type of experiment: cell-based.

Structures are written as SMILES.

Turning to `CC1(C)OCCn2c1nc(C(=O)NCc1ccc(F)cc1-n1cc(CO)nn1)c(O)c2=O` [Example 299, Pyrimido[2,1-c][1,4]oxazine-2-carboxamide, N-[[4-fluoro-2-[4-(hydroxymethyl)-1H-1,2,3-triazol-1-yl]phenyl]methyl]-4,6,7,9-tetrahydro-3-hydroxy-9,9-dimethyl-4-oxo-], the IC50 at HIV-integrase was 2 to 100 nM. In addition, the EC50 in the experiment with NL-Rluc virus was in the range of 3 to 100 nM.

With `CC1(C)OCCCn2c1nc(C(=O)NCc1ccc(F)cc1-n1ccnn1)c(O)c2=O` [Example 300, 6H-Pyrimido[2,1-c][1,4]oxazepine-2-carboxamide, N-[[4-fluoro-2-(1H-1,2,3-triazol-1-yl)phenyl]methyl]-4,7,8,10-tetrahydro-3-hydroxy-10,10-dimethyl-4-oxo-], the IC50 on HIV-integrase lay within 2 to 100 nM. Moreover, in the experiment with NL-Rluc virus, the EC50 was 3 to 100 nM.

Take `CC(C)(C)c1cn(-c2cc(F)ccc2CNC(=O)c2nc3n(c(=O)c2O)CCCOC3(C)C)nn1` [Example 301, 6H-Pyrimido[2,1-c][1,4]oxazepine-2-carboxamide, N-[[2-[4-(1,1-dimethylethyl)-1H-1,2,3-triazol-1-yl]-4-fluorophenyl]methyl]-4,7,8,10-tetrahydro-3-hydroxy-10,10-dimethyl-4-oxo-]: on HIV-integrase, the IC50 is 2 to 100 nM. Moreover, the EC50 with NL-Rluc virus lay within 3 to 100 nM.

In the case of `Cc1nnn(-c2cc(F)ccc2CNC(=O)c2nc3n(c(=O)c2O)CCOCC3(C)C)c1C` [Example 302, 4H-Pyrimido[1,2-d][1,4]oxazepine-2-carboxamide, N-[[2-(4,5-dimethyl-1H-1,2,3-triazol-1-yl)-4-fluorophenyl]methyl]-6,7,9,10-tetrahydro-3-hydroxy-10,10-dimethyl-4-oxo-], at HIV-integrase, the IC50 was in the range of 2 to 100 nM. Further, in the experiment on NL-Rluc virus, the EC50 fell in the range of 3 to 100 nM.

On to `Cc1nncn1-c1cc(F)ccc1CNC(=O)c1nc2n(c(=O)c1O)CCOC2(C)C` [Example 303, Pyrimido[2,1-c][1,4]oxazine-2-carboxamide, N-[[4-fluoro-2-(3-methyl-4H-1,2,4-triazol-4-yl)phenyl]methyl]-4,6,7,9-tetrahydro-3-hydroxy-9,9-dimethyl-4-oxo-], for which the IC50 on HIV-integrase lay in the range of 100 to 1000 nM. For the same compound, the EC50 in the experiment on NL-Rluc virus is more than 1000 nM.

`CC1(C)OCCCn2c1nc(C(=O)NCc1ccc(F)cc1N1CCOC1=O)c(O)c2=O` [Example 304, 6H-Pyrimido[2,1-c][1,4]oxazepine-2-carboxamide, N-[[4-fluoro-2-(2-oxo-3-oxazolidinyl)phenyl]methyl]-4,7,8,10-tetrahydro-3-hydroxy-10,10-dimethyl-4-oxo-]: on HIV-integrase, the IC50 is 2 to 100 nM. Also, the EC50 in the experiment with NL-Rluc virus lay in the range of 3 to 100 nM.

As to `CCS(=O)(=O)Nc1cc(F)ccc1CNC(=O)c1nc2n(c(=O)c1O)CCOC2(C)C` [Example 305, Pyrimido[2,1-c][1,4]oxazine-2-carboxamide, N-[[2-[(ethylsulfonyl)amino]-4-fluorophenyl]methyl]-4,6,7,9-tetrahydro-3-hydroxy-9,9-dimethyl-4-oxo-], the IC50 at HIV-integrase lay in the range of 2 to 100 nM. For the same compound, the EC50 in the experiment on NL-Rluc virus lay in the range of 3 to 100 nM.

Turning to `CC1(C)OCCn2c1nc(C(=O)NCc1ccc(F)cc1-n1cccn1)c(O)c2=O` [Example 306, Pyrimido[2,1-c][1,4]oxazine-2-carboxamide, N-[[4-fluoro-2-(1H-pyrazol-1-yl)phenyl]methyl]-4,6,7,9-tetrahydro-3-hydroxy-9,9-dimethyl-4-oxo-], on HIV-integrase, the IC50 lay in the range of 2 to 100 nM. For the same compound, in the experiment with NL-Rluc virus, the EC50 is 3 to 100 nM.

Turning to `Cc1nc(C)n(-c2cc(F)ccc2CNC(=O)c2nc3n(c(=O)c2O)CCOC3(C)C)n1` [Example 307, Pyrimido[2,1-c][1,4]oxazine-2-carboxamide, N-[[2-(3,5-dimethyl-1H-1,2,4-triazol-1-yl)-4-fluorophenyl]methyl]-4,6,7,9-tetrahydro-3-hydroxy-9,9-dimethyl-4-oxo-], the IC50 on HIV-integrase was 2 to 100 nM. The EC50 in the experiment with NL-Rluc virus fell in the range of 3 to 100 nM.

For `CC1(C)OCCn2c1nc(C(=O)NCc1ccc(F)cc1-n1ncnc1CO)c(O)c2=O` [Example 308, Pyrimido[2,1-c][1,4]oxazine-2-carboxamide, N-[[4-fluoro-2-[5-(hydroxymethyl)-1H-1,2,4-triazol-1-yl]phenyl]methyl]-4,6,7,9-tetrahydro-3-hydroxy-9,9-dimethyl-4-oxo-], the IC50 at HIV-integrase is 2 to 100 nM. Moreover, in the experiment on NL-Rluc virus, the EC50 was in the range of 3 to 100 nM.

As to `CC(=O)OCCSc1cc(F)ccc1CNC(=O)c1nc2n(c(=O)c1O)CCOC2(C)C` [Example 309, Pyrimido[2,1-c][1,4]oxazine-2-carboxamide, N-[[2-[[2-(acetyloxy)ethyl]thio]-4-fluorophenyl]methyl]-4,6,7,9-tetrahydro-3-hydroxy-9,9-dimethyl-4-oxo-], on HIV-integrase, the IC50 lay in the range of 2 to 100 nM. The EC50 in the experiment on NL-Rluc virus was in the range of 3 to 100 nM.

Turning to `CC(=O)OCCS(=O)(=O)c1cc(F)ccc1CNC(=O)c1nc2n(c(=O)c1O)CCOC2(C)C` [Example 310, Pyrimido[2,1-c][1,4]oxazine-2-carboxamide, N-[[2-[[2-(acetyloxy)ethyl]sulfonyl]-4-fluorophenyl]methyl]-4,6,7,9-tetrahydro-3-hydroxy-9,9-dimethyl-4-oxo-], the IC50 at HIV-integrase lay within 2 to 100 nM. Moreover, the EC50 with NL-Rluc virus lay in the range of 3 to 100 nM.

On to `CCSc1cc(F)ccc1CNC(=O)c1nc2n(c(=O)c1O)CCOC2(C)C` [Example 311, Pyrimido[2,1-c][1,4]oxazine-2-carboxamide, N-[[2-(ethylthio)-4-fluorophenyl]methyl]-4,6,7,9-tetrahydro-3-hydroxy-9,9-dimethyl-4-oxo-], for which the IC50 on HIV-integrase fell in the range of 2 to 100 nM. Further, in the experiment on NL-Rluc virus, the EC50 fell in the range of 3 to 100 nM.

In the case of `CC1(C)OCCn2c1nc(C(=O)NCc1ccc(F)cc1S(=O)(=O)CCO)c(O)c2=O` [Example 312, Pyrimido[2,1-c][1,4]oxazine-2-carboxamide, N-[[4-fluoro-2-[(2-hydroxyethyl)sulfonyl]phenyl]methyl]-4,6,7,9-tetrahydro-3-hydroxy-9,9-dimethyl-4-oxo-], on HIV-integrase, the IC50 fell in the range of 2 to 100 nM. For the same compound, the EC50 in the experiment on NL-Rluc virus lay in the range of 3 to 100 nM.

As for `CCC1(C)OCCn2c1nc(C(=O)NCc1ccc(F)cc1S(C)(=O)=O)c(O)c2=O` (stereo not drawn) [Example 314, Pyrimido[2,1-c][1,4]oxazine-2-carboxamide, 9-ethyl-N-[[4-fluoro-2-(methylsulfonyl)phenyl]methyl]-4,6,7,9-tetrahydro-3-hydroxy-9-methyl-4-oxo-], the IC50 on HIV-integrase lay within 2 to 100 nM. The EC50 with NL-Rluc virus fell in the range of 3 to 100 nM.

As for `CCC1(C)OCCn2c1nc(C(=O)NCc1ccc(F)cc1S(=O)(=O)N(C)C)c(O)c2=O` (stereo not drawn) [Example 315, Pyrimido[2,1-c][1,4]oxazine-2-carboxamide, N-[[2-[(dimethylamino)sulfonyl]-4-fluorophenyl]methyl]-9-ethyl-4,6,7,9-tetrahydro-3-hydroxy-9-methyl-4-oxo-], the IC50 on HIV-integrase was in the range of 2 to 100 nM. For the same compound, in the experiment on NL-Rluc virus, the EC50 was in the range of 3 to 100 nM.

On to `Cc1ncnn1-c1cc(F)ccc1CNC(=O)c1nc2n(c(=O)c1O)CCCOC2(C)C` [Example 316, 6H-Pyrimido[2,1-c][1,4]oxazepine-2-carboxamide, N-[[4-fluoro-2-(5-methyl-1H-1,2,4-triazol-1-yl)phenyl]methyl]-4,7,8,10-tetrahydro-3-hydroxy-10,10-dimethyl-4-oxo-], for which the IC50 at HIV-integrase lay in the range of 2 to 100 nM. The EC50 in the experiment on NL-Rluc virus is 3 to 100 nM.

With `Cc1ncn(-c2cc(F)ccc2CNC(=O)c2nc3n(c(=O)c2O)CCCOC3(C)C)n1` [Example 317, 6H-Pyrimido[2,1-c][1,4]oxazepine-2-carboxamide, N-[[4-fluoro-2-(3-methyl-1H-1,2,4-triazol-1-yl)phenyl]methyl]-4,7,8,10-tetrahydro-3-hydroxy-10,10-dimethyl-4-oxo-], at HIV-integrase, the IC50 was in the range of 2 to 100 nM. Besides, the EC50 in the experiment with NL-Rluc virus fell in the range of 3 to 100 nM.

For the origin of these results see patent US7491819B1 (priority 2004, dated 2009).
